Experimental data from US7993824B2, “Compositions and methods for determining the susceptibility of a pathogenic virus to protease inhibitors” (Monogram Biosciences, Inc., priority 2002, dated 2011).

Key:
[1] = system: HIV-1 from the patient sample; assay: PHENOSENSE HIV phenotypic susceptibility assay on patient plasma samples (IC50 fold change vs NL4-3 reference); format: cell-based; details: for fold change in IC50: patient sample with L10I, I13V, E35D, M36I, R41K, I50V, L63P, A71V, N88N/S, L90M in HIV protease, vs NL4-3 reference
Description: In a preferred embodiment, the phenotypic analysis is performed using PHENOSENSE™ (ViroLogic Inc., South San Francisco, Calif.). See Petropoulos et al., 2000, Antimicrob. Agents Chemother. 44:920-928; U.S. Pat. Nos. 5,837,464 and 6,242,187. PHENOSENSE™ is a phenotypic assay that achieves the benefits of phenotypic testing and overcomes the drawbacks of previous assays. Because the assay has been automated, PHENOSENSE™ offers higher throughput under controlled conditions. The result is an assay that accurately defines the susceptibility profile of a patient's HIV isolates to all currently available antiretroviral drugs, and delivers results directly to the physician within about 10 to about 15 days of sample receipt. PHENOSENSE™ is accurate and can obtain results with only one round of viral replication, thereby avoiding selection of subpopulations of virus. The results are quantitative, measuring varying degrees of drug susceptibility, and sensitive—the test can be performed on blood specimens with a viral load of about 500 copies/mL and can detect minority populations of some drug-resistant virus at concentrations of 10% or less of total viral population. Furthermore, the results are reproducible and can vary by less than about 1.4-2.5 fold, depending on the drug, in about 95% of the assays performed.
PHENOSENSE™ can be used with nucleic acids from amplified viral gene sequences. As discussed in Section 5.4.1, the sample containing the virus may be a sample from a human or an animal infected with the virus or a sample from a culture of viral cells. In one embodiment, the viral sample comprises a genetically modified laboratory strain.
(§1) A resistance test vector (“RTV”) can then be constructed by incorporating the amplified viral gene sequences into a replication defective viral vector by using any method known in the art of incorporating gene sequences into a vector. In one embodiment, restrictions enzymes and conventional cloning methods are used. See Sambrook et al., 2001, Molecular Cloning: A Laboratory Manual, Cold Spring Harbor Laboratory, 3rd ed., NY; and Ausubel et al., 1989, Current Protocols in Molecular Biology, Greene Publishing Associates and Wiley Interscience, NY. In a preferred embodiment, ApaI and PinAI restriction enzymes are used. Preferably, the replication defective viral vector is the indicator gene viral vector (“IGVV”). In a preferred embodiment, the viral vector contains a means for detecting replication of the RTV. Preferably, the viral vector contains a luciferase expression cassette.
(§2) The assay can be performed by first co-transfecting host cells with RTV DNA and a plasmid that expresses the envelope proteins of another retrovirus, for example, amphotropic murine leukemia virus (MLV). Following transfection, virus particles can be harvested and used to infect fresh target cells. The completion of a single round of viral replication can be detected by the means for detecting replication contained in the vector. In a preferred embodiment, the completion of a single round of viral replication results in the production of luciferase. Serial concentrations of anti-viral agents can be added at either the transfection step or the infection step.
(§3) Susceptibility to the anti-viral agent can be measured by comparing the replication of the vector in the presence and absence of the anti-viral agent. For example, susceptibility to the anti-viral agent can be measured by comparing the luciferase activity in the presence and absence of the anti-viral agent. Susceptible viruses would produce low levels of luciferase activity in the presence of antiviral agents, whereas viruses with reduced susceptibility would produce higher levels of luciferase activity.
The phenotypic assay was conducted using the PHENOSENSE™ (Virologic, South San Francisco, Calif.) HIV assay (Petropoulos et al., 2000, Antimicrob. Agents Chemother. 44:920-928; U.S. Pat. Nos. 5,837,464 and 6,242,187). […]

[2] = system: HIV-1 clones containing I50V; assay: PhenoSense assay on protease clones (I50V; I50V+L90M; I50V+N88S) isolated from resistance test vector pools of one patient sample; format: cell-based; details: for mean fold change (FC), reduction in susceptibility: clones with I50V only, or I50V plus L90M
Description: Drug names are abbreviated as follows: APV, amprenavir; IDV, indinavir; LPV, lopinavir; NFV, nelfinavir; RTV, ritonavir; SQV, saquinavir; ATV, atazanavir (BMS 232632).
as §1, §2, §3
Clones from the population were selected so as to isolate some clones with the N88S mutation and some without it. Resistance test vector pools constructed from the original plasma sample (Petropoulos et al., 2000, Antimicrob Agents Chemother 44:920-8) were transformed into E. Coli, and plasmid DNA from individual colonies was screened in the PhenoSense® assay for […].

HIV = details: patients using amprenavir as their first PI; as low as; cited from earlier work
[3] = I50V+N88S clones vs I50V clones

Compound	fold change in IC50 [1]	mean fold change (FC), reduction in susceptibility [2]	also measured
CC(C)c1nc(CN(C)C(=O)N[C@H](C(=O)N[C@@H](Cc2ccccc2)C[C@H](O)[C@H](Cc2ccccc2)NC(=O)OCc2cncs2)C(C)C)cs1 [ritonavir]	11 fold	12-20 FC	fold decrease in IC50 in the presence of N88S (susceptibility increased) [2, 3]: 1.4 fold
Cc1cccc(C)c1OCC(=O)N[C@@H](Cc1ccccc1)[C@@H](O)C[C@H](Cc1ccccc1)NC(=O)[C@H](C(C)C)N1CCCNC1=O [lopinavir]	3.3 fold	7-9 FC	fold decrease in IC50 in the presence of N88S (susceptibility increased) [2, 3]: 1.7 fold
Cc1c(O)cccc1C(=O)N[C@@H](CSc1ccccc1)[C@H](O)CN1C[C@H]2CCCC[C@H]2C[C@H]1C(=O)NC(C)(C)C [nelfinavir]	5.3 fold	7-10 FC	fold increase in IC50 in the presence of N88S (susceptibility decreased) [2, 3]: 2.1 fold
CC(C)(C)NC(=O)[C@@H]1C[C@@H]2CCCC[C@@H]2CN1C[C@@H](O)[C@H](Cc1ccccc1)NC(=O)[C@H](CC(N)=O)NC(=O)c1ccc2ccccc2n1 [saquinavir]	3.6 fold	–	increase in FC with L90M ([2]; I50V plus L90M clones vs I50V only clones): 1.8 fold
CC(C)CN(C[C@@H](O)[C@H](Cc1ccccc1)NC(=O)O[C@H]1CCOC1)S(=O)(=O)c1ccc(N)cc1 [amprenavir]	4.1 fold	13-17 FC	99th percentile for the distribution of FC in genotypically wild-type viruses ([1]; genotypically wild-type viruses, PhenoSense Assay): 2.1 fold; fold change for a virus containing I50V, but not N88S ([2]; FIG. 7 bar 1 for APV): about 17 fold; fold change when the virus contained N88S in addition to I50V ([2]; FIG. 7 bar 2 for APV, wild type level): 1.2 FC; factor by which susceptibility was increased when N88S was present in combination with I50V [2, 3]: 14.5; reductions in susceptibility in patients who experienced viral load rebound (HIV): 2-3 fold
COC(=O)N[C@H](C(=O)N[C@@H](Cc1ccccc1)[C@@H](O)CN(Cc1ccc(-c2ccccn2)cc1)NC(=O)[C@@H](NC(=O)OC)C(C)(C)C)C(C)(C)C [atazanavir]	–	–	fold increase in IC50 in the presence of N88S (susceptibility decreased) [2, 3]: 2.3 fold
CC(C)(C)NC(=O)[C@@H]1CN(Cc2cccnc2)CCN1C[C@@H](O)C[C@@H](Cc1ccccc1)C(=O)N[C@H]1c2ccccc2C[C@H]1O [indinavir]	1.4 fold	–	–
